According to publication PMC9954146, “Anti-Leukaemic Activity of Rilpivirine Is Mediated by Aurora A Kinase Inhibition” (Cancers, 2023):

What was measured:
Assay in all cases: Kinase panel
Type in all cases: biochemical
Conditions in all cases: read-out: % Residual Activity
[1] = molecular target: T1, SGK3(h) (Homo sapiens, UniProt Q96BR1)
T1 construct: purchased Eurofins (KinaseProfiler)
Method in brief: (§1)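 Rilpivirine was screened across the kinome for selectivity; inhibition was then quantified radiometrically at Km ATP, and Cheng–Prusoff was applied to derive Ki from IC50.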

[2] = molecular target: T2, NEK1(h) (Homo sapiens, UniProt Q96PY6)
T2 construct: purchased Eurofins (KinaseProfiler)
Method in brief: as §1

[3] = molecular target: T3, WNK1(h) (Homo sapiens, UniProt Q9H4A3)
T3 construct: purchased Eurofins (KinaseProfiler)
T3 sequence (Q9H4A3 whole entry): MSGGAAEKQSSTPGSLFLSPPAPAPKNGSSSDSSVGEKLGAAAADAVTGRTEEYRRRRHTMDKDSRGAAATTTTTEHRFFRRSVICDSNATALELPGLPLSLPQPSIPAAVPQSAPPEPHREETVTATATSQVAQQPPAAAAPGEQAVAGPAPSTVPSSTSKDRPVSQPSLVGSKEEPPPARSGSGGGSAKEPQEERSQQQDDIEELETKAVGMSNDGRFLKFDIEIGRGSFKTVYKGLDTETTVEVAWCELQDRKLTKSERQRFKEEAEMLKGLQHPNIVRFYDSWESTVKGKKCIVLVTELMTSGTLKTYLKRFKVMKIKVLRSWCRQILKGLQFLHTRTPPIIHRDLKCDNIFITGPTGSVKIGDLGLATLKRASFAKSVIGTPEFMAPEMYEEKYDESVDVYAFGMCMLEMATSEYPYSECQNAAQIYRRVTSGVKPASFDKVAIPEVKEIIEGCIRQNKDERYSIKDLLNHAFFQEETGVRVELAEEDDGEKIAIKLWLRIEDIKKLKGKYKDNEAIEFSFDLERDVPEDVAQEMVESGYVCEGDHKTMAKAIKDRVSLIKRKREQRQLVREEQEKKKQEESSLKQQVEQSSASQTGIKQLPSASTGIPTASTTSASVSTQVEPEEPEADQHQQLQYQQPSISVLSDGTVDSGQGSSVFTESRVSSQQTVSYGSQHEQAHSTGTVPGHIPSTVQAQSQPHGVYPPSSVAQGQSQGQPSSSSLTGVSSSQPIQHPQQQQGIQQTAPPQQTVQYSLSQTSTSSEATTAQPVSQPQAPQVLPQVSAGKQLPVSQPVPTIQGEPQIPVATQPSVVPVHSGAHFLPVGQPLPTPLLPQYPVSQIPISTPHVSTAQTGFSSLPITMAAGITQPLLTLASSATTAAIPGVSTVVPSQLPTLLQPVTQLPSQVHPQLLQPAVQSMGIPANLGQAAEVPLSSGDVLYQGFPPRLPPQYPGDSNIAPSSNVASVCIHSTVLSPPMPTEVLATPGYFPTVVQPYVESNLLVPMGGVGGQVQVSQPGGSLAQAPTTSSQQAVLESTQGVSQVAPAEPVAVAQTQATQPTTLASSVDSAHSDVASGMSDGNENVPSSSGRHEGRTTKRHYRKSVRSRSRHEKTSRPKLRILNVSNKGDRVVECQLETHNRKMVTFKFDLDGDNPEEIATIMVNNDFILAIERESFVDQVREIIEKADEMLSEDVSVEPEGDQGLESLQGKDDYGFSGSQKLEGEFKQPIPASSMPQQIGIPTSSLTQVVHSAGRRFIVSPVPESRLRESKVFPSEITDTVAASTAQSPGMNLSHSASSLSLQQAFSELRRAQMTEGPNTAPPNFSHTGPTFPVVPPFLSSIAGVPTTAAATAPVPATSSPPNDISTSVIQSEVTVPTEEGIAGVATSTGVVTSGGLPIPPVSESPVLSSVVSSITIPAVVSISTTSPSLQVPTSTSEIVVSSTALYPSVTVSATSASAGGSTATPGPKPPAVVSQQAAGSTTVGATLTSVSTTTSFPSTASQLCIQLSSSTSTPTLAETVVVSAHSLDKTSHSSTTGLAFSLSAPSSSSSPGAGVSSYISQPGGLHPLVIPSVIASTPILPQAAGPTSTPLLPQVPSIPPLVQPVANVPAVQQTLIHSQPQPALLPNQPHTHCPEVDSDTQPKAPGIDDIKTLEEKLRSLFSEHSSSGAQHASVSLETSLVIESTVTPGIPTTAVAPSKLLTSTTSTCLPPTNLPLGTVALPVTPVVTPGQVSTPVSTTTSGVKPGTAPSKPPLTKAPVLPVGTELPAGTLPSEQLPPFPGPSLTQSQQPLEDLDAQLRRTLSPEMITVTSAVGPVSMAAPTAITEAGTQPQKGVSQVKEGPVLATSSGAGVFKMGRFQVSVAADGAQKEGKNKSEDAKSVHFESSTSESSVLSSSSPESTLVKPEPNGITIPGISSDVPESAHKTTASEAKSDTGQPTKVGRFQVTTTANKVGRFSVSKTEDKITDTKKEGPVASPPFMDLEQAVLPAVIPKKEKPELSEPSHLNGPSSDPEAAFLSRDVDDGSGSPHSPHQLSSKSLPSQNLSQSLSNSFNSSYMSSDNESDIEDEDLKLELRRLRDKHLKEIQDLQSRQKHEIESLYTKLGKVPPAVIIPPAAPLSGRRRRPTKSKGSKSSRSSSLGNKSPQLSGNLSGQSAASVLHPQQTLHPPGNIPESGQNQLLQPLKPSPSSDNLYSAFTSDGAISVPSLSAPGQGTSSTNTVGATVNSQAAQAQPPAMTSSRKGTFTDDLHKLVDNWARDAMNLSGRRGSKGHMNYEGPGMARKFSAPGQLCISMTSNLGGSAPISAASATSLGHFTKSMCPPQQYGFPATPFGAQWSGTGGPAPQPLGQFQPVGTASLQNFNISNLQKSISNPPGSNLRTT
Method in brief: as §1

[4] = molecular target: T4, SRPK1(h) (Homo sapiens, UniProt Q96SB4)
T4 construct: purchased Eurofins (KinaseProfiler)
T4 sequence (Q96SB4 whole entry): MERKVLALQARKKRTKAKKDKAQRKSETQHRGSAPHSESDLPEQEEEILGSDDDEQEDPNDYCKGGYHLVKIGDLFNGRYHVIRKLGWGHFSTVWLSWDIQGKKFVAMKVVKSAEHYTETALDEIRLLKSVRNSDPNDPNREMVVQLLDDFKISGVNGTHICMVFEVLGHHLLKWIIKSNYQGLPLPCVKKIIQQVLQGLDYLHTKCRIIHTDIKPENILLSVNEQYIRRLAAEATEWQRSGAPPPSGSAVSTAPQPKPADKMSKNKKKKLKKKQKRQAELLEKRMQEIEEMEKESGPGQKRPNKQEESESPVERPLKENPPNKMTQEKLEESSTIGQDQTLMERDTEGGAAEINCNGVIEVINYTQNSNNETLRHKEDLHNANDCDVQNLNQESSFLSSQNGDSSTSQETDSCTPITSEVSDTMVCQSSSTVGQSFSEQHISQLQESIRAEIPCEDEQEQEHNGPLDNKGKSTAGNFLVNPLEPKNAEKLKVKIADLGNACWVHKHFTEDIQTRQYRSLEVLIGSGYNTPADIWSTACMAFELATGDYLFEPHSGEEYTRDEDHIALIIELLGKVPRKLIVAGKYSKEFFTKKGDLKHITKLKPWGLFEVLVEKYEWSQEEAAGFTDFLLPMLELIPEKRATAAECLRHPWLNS
Method in brief: as §1

[5] = molecular target: T5, Abl(h) (Homo sapiens, UniProt P00519)
T5 construct: purchased Eurofins (KinaseProfiler)
Method in brief: as §1

[6] = molecular target: T6, Tie2(R849W)(h) (Homo sapiens, UniProt Q02763, R849W)
T6 construct: purchased Eurofins (KinaseProfiler)
Method in brief: as §1

[7] = molecular target: T7, MAPKAP-K2(h) (Homo sapiens, UniProt P49137)
T7 construct: purchased Eurofins (KinaseProfiler)
Method in brief: as §1

[8] = molecular target: T8, MLK1(h) (Homo sapiens, UniProt P80192)
T8 construct: purchased Eurofins (KinaseProfiler)
Method in brief: as §1

[9] = molecular target: T9, MRCKβ(h) (Homo sapiens, UniProt Q9Y5S2)
T9 construct: purchased Eurofins (KinaseProfiler)
Method in brief: as §1

[10] = molecular target: T10, CLK1(h) (Homo sapiens, UniProt P49759)
T10 construct: purchased Eurofins (KinaseProfiler)
T10 sequence (P49759 whole entry): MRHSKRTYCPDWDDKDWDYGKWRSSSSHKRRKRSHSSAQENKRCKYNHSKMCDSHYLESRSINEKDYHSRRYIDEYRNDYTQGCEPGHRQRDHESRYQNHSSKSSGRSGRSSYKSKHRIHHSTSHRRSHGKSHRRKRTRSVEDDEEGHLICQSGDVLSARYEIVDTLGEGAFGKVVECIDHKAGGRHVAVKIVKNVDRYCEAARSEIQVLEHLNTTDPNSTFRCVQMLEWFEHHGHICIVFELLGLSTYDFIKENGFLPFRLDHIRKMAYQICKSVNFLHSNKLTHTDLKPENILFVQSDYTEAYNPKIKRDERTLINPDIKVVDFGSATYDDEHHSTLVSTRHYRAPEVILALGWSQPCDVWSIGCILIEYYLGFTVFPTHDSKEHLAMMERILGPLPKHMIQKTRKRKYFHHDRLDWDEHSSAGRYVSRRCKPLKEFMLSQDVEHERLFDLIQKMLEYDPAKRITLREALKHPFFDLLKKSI
Method in brief: as §1

[11] = molecular target: T11, EphB4(h) (Homo sapiens, UniProt P54760)
T11 construct: purchased Eurofins (KinaseProfiler)
Method in brief: as §1

[12] = molecular target: T12, MLK2(h) (Homo sapiens, UniProt Q02779)
T12 construct: purchased Eurofins (KinaseProfiler)
Method in brief: as §1

[13] = molecular target: T13, Abl (M351T)(h) (Homo sapiens, UniProt P00519, M351T)
T13 construct: purchased Eurofins (KinaseProfiler)
Method in brief: as §1

[14] = molecular target: T14, RIPK1(h) (Homo sapiens, UniProt Q13546)
T14 construct: purchased Eurofins (KinaseProfiler)
Method in brief: as §1

[15] = molecular target: T15, NEK3(h) (Homo sapiens, UniProt P51956)
T15 construct: purchased Eurofins (KinaseProfiler)
Method in brief: as §1

[16] = molecular target: T16, MuSK(h) (Homo sapiens, UniProt O15146)
T16 construct: purchased Eurofins (KinaseProfiler)
Method in brief: as §1

[17] = molecular target: T17, IGF-1R(h), activated (Homo sapiens, UniProt P08069)
T17 construct: purchased Eurofins (KinaseProfiler)
Method in brief: as §1

[18] = molecular target: T18, TSSK4(h) (Homo sapiens, UniProt Q6SA08)
T18 construct: purchased Eurofins (KinaseProfiler)
Method in brief: as §1

[19] = molecular target: T19, LATS2(h) (Homo sapiens, UniProt Q9NRM7)
T19 construct: purchased Eurofins (KinaseProfiler)
T19 sequence (Q9NRM7 whole entry): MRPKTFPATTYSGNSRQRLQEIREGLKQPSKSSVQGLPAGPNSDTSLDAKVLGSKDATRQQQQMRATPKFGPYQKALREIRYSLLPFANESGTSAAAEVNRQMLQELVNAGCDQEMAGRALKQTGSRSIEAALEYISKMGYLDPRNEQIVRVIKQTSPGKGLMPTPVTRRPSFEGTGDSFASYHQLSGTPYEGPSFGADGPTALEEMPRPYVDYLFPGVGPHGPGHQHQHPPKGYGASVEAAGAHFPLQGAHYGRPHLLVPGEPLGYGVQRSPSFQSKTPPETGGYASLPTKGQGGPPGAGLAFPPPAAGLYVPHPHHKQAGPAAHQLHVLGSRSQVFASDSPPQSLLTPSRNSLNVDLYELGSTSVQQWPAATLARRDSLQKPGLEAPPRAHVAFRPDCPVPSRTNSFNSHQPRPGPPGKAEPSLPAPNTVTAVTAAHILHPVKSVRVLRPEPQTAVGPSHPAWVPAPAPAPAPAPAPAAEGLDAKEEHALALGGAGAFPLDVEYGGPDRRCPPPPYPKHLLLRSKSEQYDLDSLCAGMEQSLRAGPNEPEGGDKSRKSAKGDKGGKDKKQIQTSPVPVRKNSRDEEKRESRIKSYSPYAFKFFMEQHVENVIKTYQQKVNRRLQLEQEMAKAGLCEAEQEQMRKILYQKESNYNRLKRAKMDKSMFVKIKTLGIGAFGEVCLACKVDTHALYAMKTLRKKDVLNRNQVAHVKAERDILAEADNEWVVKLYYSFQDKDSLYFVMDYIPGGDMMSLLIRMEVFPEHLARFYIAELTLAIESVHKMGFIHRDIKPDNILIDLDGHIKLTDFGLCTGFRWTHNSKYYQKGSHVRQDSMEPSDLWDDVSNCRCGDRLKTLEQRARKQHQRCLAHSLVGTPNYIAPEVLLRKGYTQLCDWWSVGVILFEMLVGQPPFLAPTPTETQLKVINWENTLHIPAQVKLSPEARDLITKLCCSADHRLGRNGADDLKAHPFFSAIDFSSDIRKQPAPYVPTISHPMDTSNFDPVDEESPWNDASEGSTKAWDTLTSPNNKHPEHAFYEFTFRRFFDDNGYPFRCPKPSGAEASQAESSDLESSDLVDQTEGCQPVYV
Method in brief: as §1

[20] = molecular target: T20, SGK2(h) (Homo sapiens, UniProt Q9HBY8)
T20 construct: purchased Eurofins (KinaseProfiler)
Method in brief: as §1

[21] = molecular target: T21, DCAMKL1(h) (Homo sapiens, UniProt O15075)
T21 construct: purchased Eurofins (KinaseProfiler)
Method in brief: as §1

[22] = molecular target: T22, NEK9(h) (Homo sapiens, UniProt Q8TD19)
T22 construct: purchased Eurofins (KinaseProfiler)
Method in brief: as §1

[23] = molecular target: T23, PAK3(h) (Homo sapiens, UniProt O75914)
T23 construct: purchased Eurofins (KinaseProfiler)
Method in brief: as §1

[24] = molecular target: T24, MEK2(h) (Homo sapiens, UniProt P36507)
T24 construct: purchased Eurofins (KinaseProfiler)
T24 sequence (P36507 whole entry): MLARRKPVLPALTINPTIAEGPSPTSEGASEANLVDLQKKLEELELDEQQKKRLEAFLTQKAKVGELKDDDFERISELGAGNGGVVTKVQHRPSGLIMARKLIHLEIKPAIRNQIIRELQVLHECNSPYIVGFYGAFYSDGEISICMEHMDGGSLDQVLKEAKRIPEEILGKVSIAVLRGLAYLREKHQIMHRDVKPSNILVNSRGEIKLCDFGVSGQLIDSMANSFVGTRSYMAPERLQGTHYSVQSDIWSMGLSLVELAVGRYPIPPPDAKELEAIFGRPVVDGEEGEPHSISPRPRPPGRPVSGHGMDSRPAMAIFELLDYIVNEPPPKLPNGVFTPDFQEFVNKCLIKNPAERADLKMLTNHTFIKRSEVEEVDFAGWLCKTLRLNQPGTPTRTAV
Method in brief: as §1

[25] = molecular target: T25, PDGFRα(V561D)(h) (Homo sapiens, UniProt P16234, V561D)
T25 construct: purchased Eurofins (KinaseProfiler)
Method in brief: as §1

[26] = molecular target: T26, ALK6(h) (Homo sapiens, UniProt O00238)
T26 construct: purchased Eurofins (KinaseProfiler)
Method in brief: as §1

[27] = molecular target: T27, DRAK2(h) (Homo sapiens, UniProt O94768)
T27 construct: purchased Eurofins (KinaseProfiler)
Method in brief: as §1

[28] = molecular target: T28, EphA5(h) (Homo sapiens, UniProt P54756)
T28 construct: purchased Eurofins (KinaseProfiler)
Method in brief: as §1

[29] = molecular target: T29, NDR1(h) (Homo sapiens, UniProt Q15208)
T29 construct: purchased Eurofins (KinaseProfiler)
Method in brief: as §1

[30] = molecular target: T30, GRK1(h) (Homo sapiens, UniProt Q15835)
T30 construct: purchased Eurofins (KinaseProfiler)
Method in brief: as §1

[31] = molecular target: T31, NEK11(h) (Homo sapiens, UniProt Q8NG66)
T31 construct: purchased Eurofins (KinaseProfiler)
Method in brief: as §1

[32] = molecular target: PI3 Kinase (p110aH1047R)/p85a)(h) (Homo sapiens, UniProt P42336, H1047R)
Method in brief: as §1

[33] = molecular target: T32, CDK2/cyclinA(h) (Homo sapiens, UniProt P24941)
T32 construct: purchased Eurofins (KinaseProfiler)
Method in brief: as §1

[34] = molecular target: T33, CK2(h) (Homo sapiens, UniProt P68400)
T33 construct: purchased Eurofins (KinaseProfiler)
Method in brief: as §1

[35] = molecular target: T34, DAPK1(h) (Homo sapiens, UniProt P53355)
T34 construct: purchased Eurofins (KinaseProfiler)
Method in brief: as §1

[36] = molecular target: T35, SRPK2(h) (Homo sapiens, UniProt P78362)
T35 construct: purchased Eurofins (KinaseProfiler)
Method in brief: as §1

[37] = molecular target: T36, TrkB(h) (Homo sapiens, UniProt Q16620)
T36 construct: purchased Eurofins (KinaseProfiler)
Method in brief: as §1

[38] = molecular target: T37, TSSK1(h) (Homo sapiens, UniProt Q9BXA7)
T37 construct: purchased Eurofins (KinaseProfiler)
Method in brief: as §1

Cc1cc(/C=C/C#N)cc(C)c1Nc1ccnc(Nc2ccc(C#N)cc2)n1 [rilpivirine, (E)-4-((4-((4-(2-cyanoethenyl)-2,6-dimethylphenyl)amino)pyrimidin-2-yl)amino)benzonitrile]
remaining activity at 1 µM [1]: 99%
remaining activity at 1 µM [2]: 86%
remaining activity at 1 µM [3]: 95%
remaining activity at 1 µM [4]: 84%
remaining activity at 1 µM [5]: 86%
remaining activity at 1 µM [6]: 86%
remaining activity at 1 µM [7]: 100%
remaining activity at 1 µM [8]: 81%
remaining activity at 1 µM [9]: 87%
remaining activity at 1 µM [10]: 48%
remaining activity at 1 µM [11]: 86%
remaining activity at 1 µM [12]: 85%
remaining activity at 1 µM [13]: 74%
remaining activity at 1 µM [14]: 91%
remaining activity at 1 µM [15]: 91%
remaining activity at 1 µM [16]: 96%
remaining activity at 1 µM [17]: 99%
remaining activity at 1 µM [18]: 127%
remaining activity at 1 µM [19]: 80%
remaining activity at 1 µM [20]: 97%
remaining activity at 1 µM [21]: 91%
remaining activity at 1 µM [22]: 90%
remaining activity at 1 µM [23]: 86%
remaining activity at 1 µM [24]: 92%
remaining activity at 1 µM [25]: 86%
remaining activity at 1 µM [26]: 83%
remaining activity at 1 µM [27]: 107%
remaining activity at 1 µM [28]: 79%
remaining activity at 1 µM [29]: 89%
remaining activity at 1 µM [30]: 103%
remaining activity at 1 µM [31]: 92%
remaining activity at 1 µM [32]: 93%
remaining activity at 1 µM [33]: 87%
remaining activity at 1 µM [34]: 90%
remaining activity at 1 µM [35]: 83%
remaining activity at 1 µM [36]: 91%
remaining activity at 1 µM [37]: 72%
remaining activity at 1 µM [38]: 86%
